Experimental data from PMC11882969 (Nature Communications, 2025).
“And” between values parts separate entries of the source, which are not always exact repeats. Equal values may be shown once.

Legend:
CB1R = assay: Bimane fluorescence of labeled CB1R; format: biochemical, human; conditions: 10 μM ligand; apo 459 nm
Procedure: A minimal cysteine version of CB1R was generated[85] where all the cysteine residues (except C256 and C264) were mutated to alanine. […] Excess label was removed using size exclusion chromatography on a Superdex 200 10/300 Increase column in 20 mM HEPES pH 7.5, 100 mM NaCl and 0.01% MNG/0.001% CHS. Bimane-labeled CB1R at […] was incubated with ligands (10 μM) for one hour at room temperature. Fluorescence data was collected at room temperature in a 150 μL cuvette with a FluorEssence v3.8 software on a Fluorolog instrument (Horiba) in photon-counting mode. Bimane fluorescence was measured by excitation at 370 nm with excitation and emission bandwidth passes of 4 nm. The emission spectra were recorded from 410 to 510 nm with 1 nm increment and 0.1 s integration time.

[1] = target: panel of 320 non-olfactory GPCRs (Homo sapiens, UniProt O00270); format: cell-based
[2] = target: panel of 320 non-olfactory GPCRs (Homo sapiens, UniProt O95838); format: cell-based
[3] = target: panel of 320 non-olfactory GPCRs (Homo sapiens, UniProt P0DMS8); format: cell-based
Sequence of panel of 320 non-olfactory GPCRs (Homo sapiens, UniProt P0DMS8) (P0DMS8 whole entry): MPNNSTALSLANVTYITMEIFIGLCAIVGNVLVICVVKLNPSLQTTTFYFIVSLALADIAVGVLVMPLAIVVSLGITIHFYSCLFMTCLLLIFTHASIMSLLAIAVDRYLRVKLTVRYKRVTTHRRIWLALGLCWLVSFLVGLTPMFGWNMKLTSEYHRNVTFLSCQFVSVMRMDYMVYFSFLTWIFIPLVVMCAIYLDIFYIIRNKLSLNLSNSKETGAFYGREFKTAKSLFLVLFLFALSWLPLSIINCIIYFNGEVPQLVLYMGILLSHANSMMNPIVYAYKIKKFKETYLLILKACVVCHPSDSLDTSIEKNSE

[4] = target: panel of 320 non-olfactory GPCRs (Homo sapiens, UniProt P13945); format: cell-based
Sequence of panel of 320 non-olfactory GPCRs (Homo sapiens, UniProt P13945) (P13945 whole entry): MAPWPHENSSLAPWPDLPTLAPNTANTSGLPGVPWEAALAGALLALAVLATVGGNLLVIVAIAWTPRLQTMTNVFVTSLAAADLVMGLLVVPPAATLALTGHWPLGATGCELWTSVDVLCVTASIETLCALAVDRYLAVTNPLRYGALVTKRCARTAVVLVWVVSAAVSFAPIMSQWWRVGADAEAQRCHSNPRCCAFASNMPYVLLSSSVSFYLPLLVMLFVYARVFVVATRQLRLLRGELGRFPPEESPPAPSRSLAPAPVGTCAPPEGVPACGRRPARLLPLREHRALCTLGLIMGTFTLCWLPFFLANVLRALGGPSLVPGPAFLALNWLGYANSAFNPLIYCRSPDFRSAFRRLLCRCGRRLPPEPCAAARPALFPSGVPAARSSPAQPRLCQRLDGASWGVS

[5] = target: panel of 320 non-olfactory GPCRs (Homo sapiens, UniProt P16473); format: cell-based
Sequence of panel of 320 non-olfactory GPCRs (Homo sapiens, UniProt P16473) (P16473 21-764): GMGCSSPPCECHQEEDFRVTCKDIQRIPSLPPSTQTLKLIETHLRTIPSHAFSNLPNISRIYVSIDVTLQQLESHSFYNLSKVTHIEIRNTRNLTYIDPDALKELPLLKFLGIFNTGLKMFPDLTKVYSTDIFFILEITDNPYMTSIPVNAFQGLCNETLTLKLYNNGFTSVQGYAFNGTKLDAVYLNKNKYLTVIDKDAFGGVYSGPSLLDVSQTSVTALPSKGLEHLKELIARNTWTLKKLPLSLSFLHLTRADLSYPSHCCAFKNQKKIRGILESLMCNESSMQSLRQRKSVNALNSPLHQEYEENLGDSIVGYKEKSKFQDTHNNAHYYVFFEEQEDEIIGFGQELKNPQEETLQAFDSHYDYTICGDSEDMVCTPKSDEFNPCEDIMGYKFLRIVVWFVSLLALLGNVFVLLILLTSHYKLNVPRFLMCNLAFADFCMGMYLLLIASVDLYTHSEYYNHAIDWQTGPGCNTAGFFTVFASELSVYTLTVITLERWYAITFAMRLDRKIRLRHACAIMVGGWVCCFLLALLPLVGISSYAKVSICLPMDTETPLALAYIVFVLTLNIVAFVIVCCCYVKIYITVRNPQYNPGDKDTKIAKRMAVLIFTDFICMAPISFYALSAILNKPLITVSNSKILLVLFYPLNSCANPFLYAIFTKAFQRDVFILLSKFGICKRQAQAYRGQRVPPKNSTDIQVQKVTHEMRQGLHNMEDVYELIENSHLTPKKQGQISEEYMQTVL

[6] = target: panel of 320 non-olfactory GPCRs (Homo sapiens, UniProt P25103); format: cell-based
[7] = target: panel of 320 non-olfactory GPCRs (Homo sapiens, UniProt P28223); format: cell-based
[8] = target: panel of 320 non-olfactory GPCRs (Homo sapiens, UniProt P30874); format: cell-based
[9] = target: panel of 320 non-olfactory GPCRs (Homo sapiens, UniProt P35346); format: cell-based
[10] = target: panel of 320 non-olfactory GPCRs (Homo sapiens, UniProt P35348); format: cell-based
[11] = target: panel of 320 non-olfactory GPCRs (Homo sapiens, UniProt P46091); format: cell-based
[12] = target: panel of 320 non-olfactory GPCRs (Homo sapiens, UniProt P46092); format: cell-based
[13] = target: panel of 320 non-olfactory GPCRs (Homo sapiens, UniProt P47775); format: cell-based
Sequence of panel of 320 non-olfactory GPCRs (Homo sapiens, UniProt P47775) (P47775 whole entry): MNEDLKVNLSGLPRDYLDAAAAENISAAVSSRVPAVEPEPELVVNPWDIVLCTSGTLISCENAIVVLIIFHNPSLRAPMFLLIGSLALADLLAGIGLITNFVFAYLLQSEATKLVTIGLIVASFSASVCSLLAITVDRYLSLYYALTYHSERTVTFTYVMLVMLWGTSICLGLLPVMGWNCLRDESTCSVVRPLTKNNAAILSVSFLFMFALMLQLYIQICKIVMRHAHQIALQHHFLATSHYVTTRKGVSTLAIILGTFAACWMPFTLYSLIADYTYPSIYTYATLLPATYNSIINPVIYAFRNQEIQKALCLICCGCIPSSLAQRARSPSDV

[14] = target: panel of 320 non-olfactory GPCRs (Homo sapiens, UniProt P47871); format: cell-based
Sequence of panel of 320 non-olfactory GPCRs (Homo sapiens, UniProt P47871) (P47871 26-477): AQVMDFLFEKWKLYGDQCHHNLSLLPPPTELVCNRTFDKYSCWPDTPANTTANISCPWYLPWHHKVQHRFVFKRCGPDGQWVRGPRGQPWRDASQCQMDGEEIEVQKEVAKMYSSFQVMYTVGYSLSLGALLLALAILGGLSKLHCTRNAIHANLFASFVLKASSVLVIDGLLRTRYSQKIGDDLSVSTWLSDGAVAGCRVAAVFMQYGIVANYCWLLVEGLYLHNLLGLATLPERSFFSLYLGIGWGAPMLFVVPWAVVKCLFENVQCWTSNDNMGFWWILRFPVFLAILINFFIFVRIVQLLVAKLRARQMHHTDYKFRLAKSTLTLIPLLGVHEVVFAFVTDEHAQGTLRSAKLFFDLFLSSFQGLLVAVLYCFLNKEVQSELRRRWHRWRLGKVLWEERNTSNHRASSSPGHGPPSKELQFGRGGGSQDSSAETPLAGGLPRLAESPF

[15] = target: panel of 320 non-olfactory GPCRs (Homo sapiens, UniProt P47898); format: cell-based
Sequence of panel of 320 non-olfactory GPCRs (Homo sapiens, UniProt P47898) (P47898 whole entry): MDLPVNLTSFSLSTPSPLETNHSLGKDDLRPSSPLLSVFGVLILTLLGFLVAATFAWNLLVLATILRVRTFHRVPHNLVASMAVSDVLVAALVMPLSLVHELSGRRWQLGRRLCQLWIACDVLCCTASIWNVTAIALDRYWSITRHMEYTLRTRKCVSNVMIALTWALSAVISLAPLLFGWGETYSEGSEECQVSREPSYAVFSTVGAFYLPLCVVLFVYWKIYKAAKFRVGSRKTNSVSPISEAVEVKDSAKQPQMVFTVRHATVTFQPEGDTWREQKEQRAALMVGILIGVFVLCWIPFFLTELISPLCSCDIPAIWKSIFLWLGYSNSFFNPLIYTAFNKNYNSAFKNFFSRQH

[16] = target: panel of 320 non-olfactory GPCRs (Homo sapiens, UniProt P47901); format: cell-based
[17] = target: panel of 320 non-olfactory GPCRs (Homo sapiens, UniProt P48039); format: cell-based
[18] = target: panel of 320 non-olfactory GPCRs (Homo sapiens, UniProt P51685); format: cell-based
[19] = target: panel of 320 non-olfactory GPCRs (Homo sapiens, UniProt P51810); format: cell-based
Sequence of panel of 320 non-olfactory GPCRs (Homo sapiens, UniProt P51810) (P51810 whole entry): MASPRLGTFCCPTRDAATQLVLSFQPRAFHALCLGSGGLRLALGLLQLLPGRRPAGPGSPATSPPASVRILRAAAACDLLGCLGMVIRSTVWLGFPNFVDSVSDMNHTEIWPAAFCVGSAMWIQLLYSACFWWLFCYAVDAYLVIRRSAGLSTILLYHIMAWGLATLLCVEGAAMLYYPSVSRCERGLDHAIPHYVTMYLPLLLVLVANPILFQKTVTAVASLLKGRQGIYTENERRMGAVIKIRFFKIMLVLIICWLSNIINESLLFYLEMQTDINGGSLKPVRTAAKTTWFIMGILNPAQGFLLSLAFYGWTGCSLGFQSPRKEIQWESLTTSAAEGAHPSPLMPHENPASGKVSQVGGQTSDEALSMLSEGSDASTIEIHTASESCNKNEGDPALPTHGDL

[20] = target: panel of 320 non-olfactory GPCRs (Homo sapiens, UniProt Q01726); format: cell-based
Sequence of panel of 320 non-olfactory GPCRs (Homo sapiens, UniProt Q01726) (Q01726 whole entry): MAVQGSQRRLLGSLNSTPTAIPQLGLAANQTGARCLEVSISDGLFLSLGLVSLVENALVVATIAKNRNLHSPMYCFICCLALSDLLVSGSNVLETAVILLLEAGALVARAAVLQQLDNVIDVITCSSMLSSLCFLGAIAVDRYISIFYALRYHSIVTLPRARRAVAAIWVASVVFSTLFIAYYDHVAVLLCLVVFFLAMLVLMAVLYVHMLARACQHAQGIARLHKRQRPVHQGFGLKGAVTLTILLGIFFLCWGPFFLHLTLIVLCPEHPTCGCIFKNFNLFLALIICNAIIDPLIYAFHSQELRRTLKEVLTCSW

[21] = target: panel of 320 non-olfactory GPCRs (Homo sapiens, UniProt Q14439); format: cell-based
[22] = target: panel of 320 non-olfactory GPCRs (Homo sapiens, UniProt Q6QNK2); format: cell-based
[23] = target: panel of 320 non-olfactory GPCRs (Homo sapiens, UniProt Q6U736); format: cell-based
[24] = target: panel of 320 non-olfactory GPCRs (Homo sapiens, UniProt Q86VZ1); format: cell-based
Sequence of panel of 320 non-olfactory GPCRs (Homo sapiens, UniProt Q86VZ1) (Q86VZ1 whole entry): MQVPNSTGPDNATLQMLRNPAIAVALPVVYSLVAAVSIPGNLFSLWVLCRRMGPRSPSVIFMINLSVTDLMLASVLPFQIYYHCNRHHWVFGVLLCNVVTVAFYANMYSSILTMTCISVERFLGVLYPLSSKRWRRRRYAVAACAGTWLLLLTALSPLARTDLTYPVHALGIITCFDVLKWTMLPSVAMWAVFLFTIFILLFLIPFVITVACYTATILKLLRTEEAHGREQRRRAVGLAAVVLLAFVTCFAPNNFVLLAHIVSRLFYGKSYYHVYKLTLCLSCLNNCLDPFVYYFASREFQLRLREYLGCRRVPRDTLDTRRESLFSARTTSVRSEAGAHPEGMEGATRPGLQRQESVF

[25] = target: panel of 320 non-olfactory GPCRs (Homo sapiens, UniProt Q8NDV2); format: cell-based
[26] = target: panel of 320 non-olfactory GPCRs (Homo sapiens, UniProt Q8NFJ6); format: cell-based
[27] = target: panel of 320 non-olfactory GPCRs (Homo sapiens, UniProt Q8TDT2); format: cell-based
Sequence of panel of 320 non-olfactory GPCRs (Homo sapiens, UniProt Q8TDT2) (Q8TDT2 whole entry): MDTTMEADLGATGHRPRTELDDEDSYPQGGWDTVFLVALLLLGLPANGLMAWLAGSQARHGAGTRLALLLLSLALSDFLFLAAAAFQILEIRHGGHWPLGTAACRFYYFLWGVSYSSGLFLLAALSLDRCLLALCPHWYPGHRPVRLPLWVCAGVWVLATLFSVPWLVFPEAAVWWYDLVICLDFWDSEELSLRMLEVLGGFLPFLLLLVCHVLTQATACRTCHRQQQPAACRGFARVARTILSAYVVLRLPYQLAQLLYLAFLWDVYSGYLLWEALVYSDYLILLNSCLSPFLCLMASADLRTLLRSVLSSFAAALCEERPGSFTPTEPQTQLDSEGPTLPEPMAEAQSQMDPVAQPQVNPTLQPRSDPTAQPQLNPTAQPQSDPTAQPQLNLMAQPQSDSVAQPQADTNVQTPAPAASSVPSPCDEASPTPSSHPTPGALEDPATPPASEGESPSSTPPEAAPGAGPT

[28] = target: panel of 320 non-olfactory GPCRs (Homo sapiens, UniProt Q96RI9); format: cell-based
[29] = target: panel of 320 non-olfactory GPCRs (Homo sapiens, UniProt Q99680); format: cell-based
Sequence of panel of 320 non-olfactory GPCRs (Homo sapiens, UniProt Q99680) (Q99680 whole entry): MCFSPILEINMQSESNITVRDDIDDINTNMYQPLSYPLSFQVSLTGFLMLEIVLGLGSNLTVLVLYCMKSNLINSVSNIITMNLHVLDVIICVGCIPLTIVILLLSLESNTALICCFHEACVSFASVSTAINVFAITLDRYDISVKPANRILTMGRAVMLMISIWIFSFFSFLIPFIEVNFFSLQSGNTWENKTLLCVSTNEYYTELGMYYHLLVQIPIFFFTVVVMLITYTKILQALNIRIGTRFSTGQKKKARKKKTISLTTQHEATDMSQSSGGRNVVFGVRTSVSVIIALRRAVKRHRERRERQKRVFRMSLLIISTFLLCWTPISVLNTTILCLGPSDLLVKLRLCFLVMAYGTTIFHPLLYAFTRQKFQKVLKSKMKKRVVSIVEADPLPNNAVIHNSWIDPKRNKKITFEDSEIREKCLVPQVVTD

[30] = target: panel of 320 non-olfactory GPCRs (Homo sapiens, UniProt Q9BZJ6); format: cell-based
[31] = target: panel of 320 non-olfactory GPCRs (Homo sapiens, UniProt Q9GZQ4); format: cell-based
[32] = target: panel of 320 non-olfactory GPCRs (Homo sapiens, UniProt Q9NPC1); format: cell-based
[33] = target: panel of 320 non-olfactory GPCRs (Homo sapiens, UniProt Q9UJ42); format: cell-based
Sequence of panel of 320 non-olfactory GPCRs (Homo sapiens, UniProt Q9UJ42) (Q9UJ42 whole entry): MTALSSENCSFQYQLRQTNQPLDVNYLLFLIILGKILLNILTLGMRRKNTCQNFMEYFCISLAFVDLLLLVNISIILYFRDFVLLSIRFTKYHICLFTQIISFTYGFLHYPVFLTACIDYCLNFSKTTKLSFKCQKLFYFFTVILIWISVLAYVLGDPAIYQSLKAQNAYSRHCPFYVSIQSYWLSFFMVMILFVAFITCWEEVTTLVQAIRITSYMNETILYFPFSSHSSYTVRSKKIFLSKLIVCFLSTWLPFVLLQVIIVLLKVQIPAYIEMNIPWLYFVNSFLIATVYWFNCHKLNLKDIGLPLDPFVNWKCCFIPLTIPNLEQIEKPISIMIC

| Structure (SMILES) | bimane spectrum λmax (CB1R) | Fold of Basal RLU [1] | Fold of Basal RLU [2] | Fold of Basal RLU [3] | Fold of Basal RLU [4] | Fold of Basal RLU [5] | Fold of Basal RLU [6] | Fold of Basal RLU [7] | Fold of Basal RLU [8] | Fold of Basal RLU [9] | Fold of Basal RLU [10] | Fold of Basal RLU [11] | Fold of Basal RLU [12] | Fold of Basal RLU [13] | Fold of Basal RLU [14] | Fold of Basal RLU [15] | Fold of Basal RLU [16] | Fold of Basal RLU [17] | Fold of Basal RLU [18] | Fold of Basal RLU [19] | also measured |
| --- | --- | --- | --- | --- | --- | --- | --- | --- | --- | --- | --- | --- | --- | --- | --- | --- | --- | --- | --- | --- | --- |
| COC(=O)[C@@](C)(NC(=O)c1cc(C)n(-c2cccc(C(F)(F)F)c2)n1)c1cccs1 [‘1350] | 463 nm | 1.1 fold and 1.4 fold and 1.2 fold and 1.6 fold | 1.1 fold and 1.5 fold and 1 fold and 0.8 fold | 1 fold and 0.9 fold and 1.2 fold | 1 and 1.5 and 1.9 and 1.1 | 0.7 and 0.8 and 0.6 and 0.9 | 1.1 and 1.2 and 1.7 | 0.9 fold and 0.8 fold | 0.7 and 0.8 and 0.6 | 0.4 and 0.7 and 0.6 and 0.5 | 1.1 and 0.9 and 1.3 | 1 fold and 0.8 fold and 1.4 fold | 0.9 fold and 1 fold and 1.2 fold and 1.3 fold | 1.5 fold and 1.3 fold and 0.8 fold | 0.8 and 1 and 1.2 and 1.1 | 1.5 fold and 2.2 fold | 1.5 and 0.8 and 0.9 and 1.1 | 2.2 fold and 2.3 fold and 2.4 fold | 1.6 and 1.3 and 1.1 and 1 | 1.2 and 0.9 and 0.8 and 1 | Fold of Basal RLU [20]: 0.7 and 0.6 and 1; Fold of Basal RLU [21]: 0.7 and 0.8 and 1 and 0.9; Fold of Basal RLU [22]: 0.7 fold and 0.9 fold and 1 fold and 1.1 fold; Fold of Basal RLU [23]: 2.3 fold and 1.9 fold; Fold of Basal RLU [24]: 0.6 fold and 1.1 fold and 0.8 fold and 0.7 fold; Fold of Basal RLU [25]: 1.6 fold and 1.8 fold and 1.3 fold; Fold of Basal RLU [26]: 0.9 and 0.7 and 0.8 and 1.1; Fold of Basal RLU [27]: 1.2 fold and 1.1 fold and 0.8 fold and 1.5 fold; Fold of Basal RLU [28]: 1.2 and 1.1 and 1.5; Fold of Basal RLU [29]: 0.7 fold and 0.9 fold and 0.8 fold; Fold of Basal RLU [30]: 1.1 fold and 1 fold and 0.8 fold; Fold of Basal RLU [31]: 0.7 fold and 0.9 fold and 0.8 fold; Fold of Basal RLU [32]: 0.8 fold and 1 fold and 0.6 fold and 0.7 fold; Fold of Basal RLU [33]: 0.7 fold and 1.1 fold and 1 fold |
| COC(=O)[C@](C)(NC(=O)c1cc(C)n(-c2cccc(C(F)(F)F)c2)n1)c1cccs1 [‘8690] | 459 nm |  |  |  |  |  |  |  |  |  |  |  |  |  |  |  |  |  |  |  |  |
| Cc1cc(C(=O)NC(C)(c2ccco2)c2ccco2)nn1-c1cccc(C(F)(F)F)c1 [‘4936] |  | 1.4 fold and 1.2 fold and 1.7 fold and 2.2 fold | 1 fold and 0.8 fold and 0.9 fold | 0.7 fold and 1.1 fold | 0.9 and 0.7 and 1 | 0.7 and 0.6 and 0.9 | 1.3 and 1.8 and 1.7 and 2 | 1.2 fold and 1 fold and 1.4 fold | 0.7 and 1 | 1 and 0.7 and 0.8 | 0.6 and 0.7 and 1.1 | 1 fold and 1.2 fold and 1.5 fold and 1.3 fold | 0.9 fold and 1.2 fold and 1 fold | 1.4 fold and 2.1 fold and 1.5 fold and 1.8 fold | 1.3 and 1.1 and 1.4 and 0.8 | 2.1 fold and 2.3 fold | 0.6 and 0.4 and 0.5 | 2.7 fold and 3.1 fold and 3.2 fold | 1.5 and 1.1 and 1.2 and 0.9 | 1 and 0.7 and 1.1 | Fold of Basal RLU [20]: 1.2 and 0.8 and 0.7 and 1.1; Fold of Basal RLU [21]: 0.8 and 0.9 and 1; Fold of Basal RLU [22]: 0.9 fold; Fold of Basal RLU [23]: 1.3 fold and 1.4 fold and 1.1 fold and 1.8 fold; Fold of Basal RLU [24]: 0.5 fold and 0.8 fold; Fold of Basal RLU [25]: 2 fold and 1.4 fold and 2.8 fold and 1.7 fold; Fold of Basal RLU [26]: 0.9 and 1.3 and 0.8; Fold of Basal RLU [27]: 1.1 fold and 0.9 fold and 1 fold; Fold of Basal RLU [28]: 0.8 and 1.3 and 1.4; Fold of Basal RLU [29]: 1.3 fold and 1 fold and 1.2 fold and 0.8 fold; Fold of Basal RLU [30]: 1.1 fold and 1.2 fold and 0.8 fold and 0.9 fold; Fold of Basal RLU [31]: 0.9 fold and 0.8 fold and 0.7 fold; Fold of Basal RLU [32]: 0.6 fold and 0.8 fold and 0.7 fold and 0.9 fold; Fold of Basal RLU [33]: 0.8 fold and 1.1 fold and 0.9 fold |
